Reference: patent publication US11760775B2, “Steroids and protein-conjugates thereof” (Regeneron Pharmaceuticals, Inc., priority 2016, dated 2023)
Counter-ions that a name gives are not always drawn.

What was measured:
[1] = biological target: Glucocorticoid Receptor (GR) (Homo sapiens (Human), UniProt P04150); assay: LanthaScreen TR-FRET GR Competitive Binding Assay (cell free)
[2] = test system: GR activation in 293/PRLR/GRE-Luc cells (HEK293/9xUAS-Luc2P/pBind-GR/PRLR-HA high cells); assay: GR co-activator luciferase reporter cell based assay in 293/PRLR/GRE-Luc cells; set-up: species or system human; conditions: 72 hours of incubation; for Emax / EC50: Homo sapiens; for Emax: HEK293, read-out: Activation (fold activation relative to Budesonide) in HEK293/9xUAS-Luc2P/pBind-GR/PRLR-HA high cells; for EC50: HEK293, read-out: HEK293/9xUAS-Luc2P/pBind-GR/PRLR-HA high cells EC50
Text: Bioassays described herein were used to assess the efficacy of free steroids and anti-PRLR-ncADCs. In one example, the bioassay assessed the activity of steroids, after internalization of a site-specific anti-PRLR-GC steroid ADC into cells, to bind to pBIND-GR and subsequent luciferase reporter activation. […] Then such stable cell line was further transfected with a chimeric receptor consisting of a GR ligand binding domain fused to the yeast Gal4 DNA binding domain (pBind-GR, Promega Cat #E1581), and a Gal4 upstream activator sequence (9×Gal4UAS-Luc2P) that drives luciferase gene expression.
(§1) For this assay, 20,000 cells were seeded in 96-well plates in media containing DMEM supplemented with 10% FBS and pencillin/streptomycin (complete media) and grown overnight at 37° C. in 5% CO2. […] Luciferase activity was determined by addition of OneGlo™ reagent (Promega, Cat #E6130) and relative light units (RLUs) were measured on a Victor luminometer (Perkin Elmer). The EC50 values were determined from a four-parameter logistic equation over a 10 point response curve using GraphPad Prism.
as §1, with “One-Glo™” for “OneGlo™”, “10-point” for “10 point”, “Prism. […] Minimal activation in this assay is defined as less than 10% of the maximal activation measured with the free payload.” for “Prism.”

Glucocorticoid Receptor (GR), sequence (P04150 524-758): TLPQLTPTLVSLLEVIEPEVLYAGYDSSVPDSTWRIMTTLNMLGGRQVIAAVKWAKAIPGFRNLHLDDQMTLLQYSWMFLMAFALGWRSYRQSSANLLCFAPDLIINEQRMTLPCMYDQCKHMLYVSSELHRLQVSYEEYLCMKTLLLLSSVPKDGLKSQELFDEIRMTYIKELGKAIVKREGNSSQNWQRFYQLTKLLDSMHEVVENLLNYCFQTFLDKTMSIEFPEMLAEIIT

Structure (SMILES)	IC50 [1]	Emax [2]	EC50 [2]	Activation (fold activation relative to Budesonide) in HEK293/9xUAS-Luc2P/pBind-GR/PRLR-HA high cells [2]
CCCC1O[C@@H]2C[C@H]3[C@@H]4CCC5=CC(=O)C=C[C@]5(C)[C@H]4[C@@H](O)C[C@]3(C)[C@]2(C(=O)COc2ccc(N)cc2)O1 (stereo partly drawn) [11-5 R/S, (1S,2S,4R,8S,9S,11S,12S,13R)-8-[2-(4-Aminophenoxy)acetyl]-11-hydroxy-9,13-dimethyl-6-propyl-5,7-dioxapentacyclo[10.8.00^2,90.0^4,80.0^13,18]icosa-14,17-dien-16-one]	10 to 100 nM	> 75%	< 10 nM	
CCC[C@H]1O[C@@H]2C[C@H]3[C@@H]4CCC5=CC(=O)C=C[C@]5(C)[C@H]4[C@@H](O)C[C@]3(C)[C@]2(C(=O)COc2ccc(N)cc2)O1 [11-5 S, (1S,2S,4R,8S,9S,11S,12S,13R)-8-[2-(4-Aminophenoxy)acetyl]-11-hydroxy-9,13-dimethyl-6-propyl-5,7-dioxapentacyclo[10.8.0.0^2,90.0^4,80.0^13,18]icosa-14,17-dien-16-one]	10 to 100 nM	> 75%	< 10 nM	
CCC[C@H]1O[C@@H]2C[C@H]3[C@@H]4CCC5=CC(=O)C=C[C@]5(C)[C@H]4[C@@H](O)C[C@]3(C)[C@]2(C(=O)COc2ccc(N)c(F)c2)O1 [11-6 S, (1S,2S,4R,6S,8S,9S,11S,12S,13R)-8-[2-(4-Amino-3-fluorophenoxy)acetyl]-11-hydroxyl-9,13-dimethyl-6-propyl-5,7-dioxapentacyclo[10.8.0.0^2,90.0^4,80.0^13,18]icosa-14,17-dien-16-one]	10 to 100 nM	> 75%	< 10 nM	
CCC[C@@H]1O[C@@H]2C[C@H]3[C@@H]4CCC5=CC(=O)C=C[C@]5(C)[C@H]4[C@@H](O)C[C@]3(C)[C@]2(C(=O)COc2ccc(N)cc2F)O1 [11-7 R, (1S,2S,4R,8S,9S,11S,12S,13R)-8-[2-(4-Amino-3-fluorophenoxy)acetyl]-11-hydroxyl-9,13-dimethyl-6-propyl-5,7-dioxapentacyclo[10.8.0.0^2,90.0^4,80.0^13,18]icosa-14,17-dien-16-one]	10 to 100 nM	> 75%	10 to 100 nM	
CCC[C@@H]1O[C@@H]2C[C@H]3[C@@H]4CCC5=CC(=O)C=C[C@]5(C)[C@H]4[C@@H](O)C[C@]3(C)[C@]2(C(=O)COc2ccc(NC)cc2)O1 [11-8 R, (1S,2S,4R,6R,8S,9S,11S,12S,13R)-11-Hydroxyl-9,13-dimethyl-8-{2-[4-(methylamino)phenoxy]acetyl}-6-propyl-5,7-dioxapentacyclo-[10.8.0.0^2,90.0^4,80.0^13,18]icosa-, 14,17-dien-16-one]	10 to 100 nM	> 75%	< 10 nM	
CCC[C@@H]1O[C@@H]2C[C@H]3[C@@H]4CCC5=CC(=O)C=C[C@]5(C)[C@H]4[C@@H](O)C[C@]3(C)[C@]2(C(=O)COc2ccc(F)cc2)O1 [11-10 R/S, (1S,2S,4R,6R,8S,9S,11S,12S,13R)-8-[2-(4-Fluorophenoxy)acetyl]-11-hydroxy-9,13-dimethyl-6-propyl-5,7-dioxapentacyclo[10.8.0.0^2,90.0^4,80.0^13,18]icosa-14,17-dien-16-one]	< 10 nM	< 20%	> 100 nM	
CCC[C@@H]1O[C@@H]2C[C@H]3[C@@H]4CCC5=CC(=O)C=C[C@]5(C)[C@H]4[C@@H](O)C[C@]3(C)[C@]2(C(=O)COc2ccc(NC(C)=O)cc2)O1 [11-11 R/S, N-(4-{2-[(1S,2S,4R,6R,8S,9S,11S,12S,13R)-11-Hydroxy-9,13-dimethyl-16-oxo-6-propyl-5,7-dioxapentacyclo[10.8.0.0^2,90.0^4,80.0^13,18]icosa-14,17-dien-8-yl]-2-oxoethoxy}phenyl)acetamide]	< 10 nM	< 20%	> 100 nM	
CCCC1O[C@@H]2C[C@H]3[C@@H]4C[C@H](F)C5=CC(=O)C=C[C@]5(C)[C@@]4(F)[C@@H](O)C[C@]3(C)[C@]2(C(=O)COc2ccc(N)cc2)O1 (stereo partly drawn) [11-12 R/S, (1S,2S,4R,8S,9S,11S,12R,13S,19S)-8-[2-(4-Aminophenoxy)acetyl]-12,19-difluoro-11-hydroxy-9,13-dimethyl-6-propyl-5,7-dioxapentacyclo[10.8.0.0^2,90.0^4,80.0^13,18]icosa-14,17-dien-16-one]	10 to 100 nM	> 75%	< 10 nM	
CCCC1O[C@@H]2C[C@H]3[C@@H]4C[C@H](F)C5=CC(=O)C=C[C@]5(C)[C@@]4(F)[C@@H](O)C[C@]3(C)[C@]2(C(=O)COc2cccc(N)c2)O1 (stereo partly drawn) [11-13 R, (1S,2S,4R,6R,8S,9S,11S,12R,13S,19S)-8-[2-(3-Aminophenoxy)acetyl]-12,19-difluoro-11-hydroxy-9,13-dimethyl-6-propyl-5,7-dioxapentacyclo[10.8.0.0^2,90.0^4,80.0^13,18]icosa-14,17-dien-16-one]	< 10 nM	> 75%	< 10 nM	
CCCC1O[C@@H]2C[C@H]3[C@@H]4C[C@H](F)C5=CC(=O)C=C[C@]5(C)[C@@]4(F)[C@@H](O)C[C@]3(C)[C@]2(C(=O)COc2ccc(N)c(F)c2)O1 (stereo partly drawn) [11-14 R/S, (1S,2S,4R,8S,9S,11S,12R,13S,19S)-8-[2-(4-Amino-3-fluorophenoxy)acetyl]-12,19-difluoro-11-hydroxy-9,13-dimethyl-6-propyl-5,7-dioxapentacyclo[10.8.0.0^2,9.0^4,80.0^13,18]icosa-14,17-dien-16-one]	< 10 nM	> 75%	< 10 nM	
CCCC1O[C@@H]2C[C@H]3[C@@H]4C[C@H](F)C5=CC(=O)C=C[C@]5(C)[C@@]4(F)[C@@H](O)C[C@]3(C)[C@]2(C(=O)COc2ccc(CN)cc2)O1 (stereo partly drawn) [11-15 R/S, (1S,2S,4R,8S,9S,11S,12R,13S,19S)-8-{2-[4-(Aminomethyl)phenoxy]acetyl}-12,19-difluoro-11-hydroxy-9,13-dimethyl-6-propyl-5,7-dioxapentacyclo[10.8.0.0^2,90.0^4,80.0^13,18]icosa-14,17-dien-16-one]	< 10 nM	20 to 75%	10 to 100 nM	
CCCC1O[C@@H]2C[C@H]3[C@@H]4C[C@H](F)C5=CC(=O)C=C[C@]5(C)[C@@]4(F)[C@@H](O)C[C@]3(C)[C@]2(C(=O)COc2cccc(N)n2)O1 (stereo partly drawn) [11-17 R/S, (1S,2S,4R,8S,9S,11S,12R,13S,19S)-8-{2-[(6-Aminopyridin-2-yl)oxy]acetyl}-12,19-difluoro-11-hydroxy-9,13-dimethyl-6-propyl-5,7-dioxapentacyclo[10.8.0.0^2,90.0^4,80.0^13,18]icosa-14,17-dien-16-one]	< 10 nM	> 75%	10 to 100 nM	
CCCC1O[C@@H]2C[C@H]3[C@@H]4C[C@H](F)C5=CC(=O)C=C[C@]5(C)[C@@]4(F)[C@@H](O)C[C@]3(C)[C@]2(C(=O)CN)O1 (stereo partly drawn) [11-19 R/S, (1S,2S,4R,6R,8S,9S,11S,12R,13S,19S)-8-(2-Aminoacetyl)-12,19-difluoro-11-hydroxy-9,13-dimethyl-6-propyl-5,7-dioxapentacyclo[10.8.0.0^2,90.0^4,80.0^13,18]icosa-14,17-dien-16-one; trifluoroacetic acid salt]	< 10 nM	> 75%	< 10 nM	
CCCC1O[C@@H]2C[C@H]3[C@@H]4C[C@H](F)C5=CC(=O)C=C[C@]5(C)[C@@]4(F)[C@@H](O)C[C@]3(C)[C@]2(C(=O)CN(C)Cc2ccc(OC)cc2)O1 (stereo partly drawn) [11-20 R/S, (1S,2S,4R,8S,9S,11S,12R,13S,19S)-12,19-Difluoro-11-hydroxy-8-(2-{[(4-methoxyphenyl)methyl](methyl)amino}acetyl)-9,13-dimethyl-6-propyl-5,7-dioxapentacyclo[10.8.0.0^2,90.0^4,80.0^13,18]icosa-14,17-dien-16-one; trifluoroacetic acid]	< 10 nM		> 100 nM	no activation
CCCC1O[C@@H]2C[C@H]3[C@@H]4C[C@H](F)C5=CC(=O)C=C[C@]5(C)[C@@]4(F)[C@@H](O)C[C@]3(C)[C@]2(C(=O)CNC)O1 (stereo partly drawn) [11-21 R/S, (1S,2S,4R,8S,9S,11S,12R,13S,19S)-12,19-Difluoro-11-hydroxy-9,13-dimethyl-8-[2-(methylamino)acetyl]-6-propyl-5,7-dioxapentacyclo[10.8.0.0^2,90.0^4,80.0^13,18]icosa-14,17-dien-16-one; trifluoroacetic acid]	< 10 nM	20 to 75%	10 to 100 nM	
